Tested on: myeloproliferative diseases
Test: Treatment of patients with myeloproliferative diseases
Type: in vivo, human
Conditions: for clinical outcome of therapy (spleen, blood counts, constitutional symptoms): therapy with the JAK or HDAC inhibitor, patients
Description: 4-(Amino)-2-(2,6-dioxo(3-piperidyl))-isoindoline-1,3-dione (Pomalidomide or Actimid™) is orally administered to patients with myeloproliferative diseases in an amount of 0.1 to 10 mg per day in combination with prednisone, JAK1 inhibitor (e.g., INCB018424), JAK2 inhibitor (e.g., SB11518, XL019, TG101348, and INCB018424), FLT3 inhibitor (e.g., TG101348), BCL2 inhibitor (e.g., GX15-070MS) and/or HDAC inhibitor (e.g., ITF2357).

Compound	efficacy in treating myeloproliferative diseases (oral, 0.1 to 10 mg per day, in combination with prednisone, JAK1, JAK2, FLT3, BCL2 and/or HDAC inhibitor)	clinical outcome of therapy (spleen, blood counts, constitutional symptoms)
Nc1cccc2c1C(=O)N(C1CCC(=O)NC1=O)C2=O (stereo not shown) [4-(Amino)-2-(2,6-dioxo(3-piperidyl))-isoindoline-1,3-dione]	effective in treating myeloproliferative diseases	–
CCN(CC)Cc1ccc2cc(COC(=O)Nc3ccc(C(=O)NO)cc3)ccc2c1 [ITF2357]	–	improvement in constitutional symptoms, spleen size and some hematologic responses
N#CC[C@H](C1CCCC1)n1cc(-c2ncnc3[nH]ccc23)cn1 [INCB018424]	–	dramatic spleen shrinkage and improvement in constitutional symptoms
O=C(Nc1ccc(-c2ccnc(Nc3ccc(N4CCOCC4)cc3)n2)cc1)C1CCCN1 (stereo not shown) [XL019]	–	reductions in splenomegaly and leukocytosis, stabilization of hemoglobin counts, improvements in blast counts, and resolution or improvement in generalized constitutional symptoms

Source: patent publication US8034831B2, “Methods for the treatment and management of myeloproliferative diseases using 4-(amino)-2-(2,6-Dioxo(3-piperidyl)-isoindoline-1,3-dione in combination with other therapies” (Celgene Corporation, priority 2002, dated 2011)
